According to ChEMBL document CHEMBL2203171, “The use of small molecule probes to study spatially separated stimulus-induced signaling pathways” (Bioorg Med Chem Lett, 2012):
Active and inactive are the calls of the source.

Assays:
Type in all cases: cell-based
[1] = target: T1, Inhibitor of nuclear factor kappa-B kinase subunit beta (Mus musculus) (UniProt O88351); assay: Inhibition of IKKbeta in C57BL/6 mouse BMDM cells assessed as inhibition of TNFalpha-induced IkappaBalpha degradation at 50 uM up to 90 mins by Western blot analysis
T1 sequence (whole entry): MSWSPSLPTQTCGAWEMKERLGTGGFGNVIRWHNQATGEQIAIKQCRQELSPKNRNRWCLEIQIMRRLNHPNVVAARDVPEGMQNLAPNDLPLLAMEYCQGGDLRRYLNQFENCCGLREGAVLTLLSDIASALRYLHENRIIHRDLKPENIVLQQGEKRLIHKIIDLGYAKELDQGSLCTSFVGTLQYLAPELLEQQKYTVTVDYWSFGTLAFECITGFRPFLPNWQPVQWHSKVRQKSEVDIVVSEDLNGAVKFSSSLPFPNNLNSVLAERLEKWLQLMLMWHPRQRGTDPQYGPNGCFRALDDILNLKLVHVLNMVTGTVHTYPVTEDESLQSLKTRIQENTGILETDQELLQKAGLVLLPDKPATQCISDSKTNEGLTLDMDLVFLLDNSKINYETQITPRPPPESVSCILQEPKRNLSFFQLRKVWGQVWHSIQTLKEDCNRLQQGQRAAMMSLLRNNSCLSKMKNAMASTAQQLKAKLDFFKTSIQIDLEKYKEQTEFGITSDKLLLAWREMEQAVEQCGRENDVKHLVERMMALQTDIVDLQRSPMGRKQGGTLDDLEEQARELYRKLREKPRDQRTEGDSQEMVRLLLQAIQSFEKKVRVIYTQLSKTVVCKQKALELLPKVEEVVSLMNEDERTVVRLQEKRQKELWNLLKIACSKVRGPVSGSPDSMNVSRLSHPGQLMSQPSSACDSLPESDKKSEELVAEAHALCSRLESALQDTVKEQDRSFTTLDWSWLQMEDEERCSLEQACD

[2] = target: T1, Inhibitor of nuclear factor kappa-B kinase subunit beta (Mus musculus); assay: Inhibition of IKKbeta in C57BL/6 mouse BMDM cells assessed as inhibition of TNFalpha-induced IkappaBalpha phosphorylation at 50 uM up to 90 mins by Western blot analysis
[3] = target: T2, MAP kinase p38 (Mus musculus) (UniProt P47811+O08911+Q9WUI1+Q9Z1B7); assay: Inhibition of MAPK p38 in C57BL/6 mouse BMDM cells assessed as inhibition of TNFalpha-induced phosphorylation at 50 uM up to 90 mins by Western blot analysis
[4] = target: T1, Inhibitor of nuclear factor kappa-B kinase subunit beta (Mus musculus); assay: Inhibition of IKKbeta in C57BL/6 mouse BMDM cells assessed as inhibition of LPS-induced IkappaBalpha degradation at 50 uM up to 90 mins by Western blot analysis
[5] = target: T1, Inhibitor of nuclear factor kappa-B kinase subunit beta (Mus musculus); assay: Inhibition of IKKbeta in C57BL/6 mouse BMDM cells assessed as inhibition of LPS-induced IkappaBalpha phosphorylation at 50 uM up to 90 mins by Western blot analysis
[6] = target: T2, MAP kinase p38 (Mus musculus); assay: Inhibition of MAPK p38 in C57BL/6 mouse BMDM cells assessed as inhibition of LPS-induced phosphorylation at 50 uM up to 90 mins by Western blot analysis

COc1ccc(C(=O)N(Cc2ccccn2)C(C(=O)NC(C)(C)C)c2ccc(-c3ccc(OC)cc3)cc2)cc1 (configuration not stated)
inactive: inhibition [1] | inhibition [2] | inhibition [3] | inhibition (active/not active) [4] | inhibition of IkappaBalpha phosphorylation (active/not active) [5] | inhibition [6]

COc1ccc(-c2ccc(C(C(=O)NC(C)(C)C)N(C(=O)CCc3ccc(O)c(O)c3)C(C)(C)C)cc2)cc1 (configuration not stated)
inactive: inhibition [1] | inhibition [2] | inhibition [3] | inhibition (active/not active) [4] | inhibition of IkappaBalpha phosphorylation (active/not active) [5] | inhibition [6]
